Laboratory results from patent US9056067B2, “Pharmaceutical composition for enhancing immunity, and extract of Poria” (Sinphar Pharmaceutical Co., Ltd., priority 2003, dated 2015).

How the values were obtained:
Type in all cases: in vivo, mice
spleen cells = test: Spleen cell growth (MTT assay) after oral administration
Protocol: BALB/c male mice, 6-8 weeks old, were used throughout the experiment. The animals were purchased from National Laboratory Animal Center, Taipei, Taiwan. The mice were housed in the Individual Ventilation Cage System, which provided an environment of Specific Pyrogen-Free. The facilities had 12-h day/night rhythm, 24-26° C. and 30-70% humidity in air. Mice were fed autoclaved water and rodent chow, and the bedding was sterilized by autoclave also. The feedstock purchased from animal center of National Taiwan University composed of crude proteins (>23.0%), crude fat (>4.5%), crude fiber (<6.0%), ash (<8.0%), added minerals (<3.0%) and water (<12%). After transport, the mice were allowed to rest for two weeks before the experiments were started.
(§1) […] […] The control group was the mice feeding with an equal volume of saline (0.85% of NaCl). Mice were sacrificed at day five, and both the serum and spleen cells were collected. The sera were subsequently used to measure the concentration of IgG, IgM and IgA. The spleen cells were plated onto a 100 mm diameter culture plate and incubated at 37° C. for three hours. The non-adherent cells containing T-lymphocytes, B-lymphocytes and NK cells were collected and properly diluted as described in each assay.
The dry powder of PCM, PCM-K1, K-2, K-3 and K4 were suspended in sterile water, followed by sonication to break down the large particle. The suspension of fine particles was used to feed the animals.
(§2) The mouse to be sacrificed was cervical dislocated and sterilized with 70% ethanol. The cardiac punctuation was performed first to withdraw the blood. After the haemagglutination, the blood sample was subjected to centrifugation and the serum was collect. For isolation of spleen cells, the peritoneum was opened to remove the spleen. The fresh spleen was transferred to a culture plate containing 10 ml of RPMI-1640 culture medium. The spleen was then ground over a fine mesh to release the spleen cells. The spleen cells suspending in the medium were then removed and transferred to a 50-ml conical centrifuge tube. The tube was subjected to centrifugation at 1300 rpm for 10 min. The supernatant was discarded and the pellet was re-suspended in 1 ml of cold RBC lysing buffer containing EDTA-NH4Cl. The cells were incubated at room temperature for 10 min, followed by washing the cells three times with culture medium by centrifugation. The spleen cells were plated onto a 100 mm diameter culture plate and incubated at 37° C. for three hours. The non-adherent cells containing T-lymphocytes, B-lymphocytes and NK cells were collected and properly diluted as described in each assay.
MTT assay is the method routinely used for estimating the viable cell number and viability of the cultured cells. The basic principle is that the only mitochondria in a viable cells contain biologically activated oxido-reductive enzymes. The enzymes interact with MTT reagents to convert the chemical into a relatively insoluble blue crystal. The crystal is then solubilized in an acidic isopropanol and the absorbence at 570 nm in each well was read using an ELISA reader (EL311, BioTek, VT). Briefly, the spleen cells suspended in a medium containing RPMI 1640 supplemented with 10% fetal bovine serum (FBS), 2 mM L-glutamine, antibiotics and 1 μg/ml concanavalin A (Con A) were cultured in the 96-well flat-bottom plate (5×10^5 cells/100 μl/well) for 5 days. MTT assay was performed at day 3, 4 and 5. MTT tetrazolium (3-(4-5-dimethylthiazol-2-yl)-2,5-diphenyltertrazolium bromide) (5 mg/ml in phosphate-buffered saline) (Sigma Chemical, St. Louis, Mo.) was added to the spleen cells (20 μl MTT per 100 μl cells), and plates were incubated at 37° C. for 4 h. Acid-isopropanol (100 μl of 0.04 NHCL in isopropanol) was added to all wells and mixed completely to dissolve the dark blue crystals. After 20 minutes at room temperature to ensure that all crystals were dissolved, the plates were read on an EIA reader at 570 nm.

IgA = IgA secretion by spleen cells in vitro (LPS, ELISA) after oral administration
Protocol: as §1, §2
(§3) An ELISA was performed in our study to measure the immunoglobulin concentration. Briefly, the spleen cells (5×10^5 cells/ml) were cultured in a medium containing RPMI 1640 supplemented with 10% fetal bovine serum (FBS), 2 mM L-glutamine, antibiotics and 5 μg/ml lipopolysaccharide (LPS; 1 μg/10^5 cells) for 5 days. LPS is a polyclonal activator of B lymphocyte. Culture spleen cell supernatants were collected at day 3, 4 and 5. IgA, IgG and IgM concentrations were measured using a sandwich ELISA technique.
The procedure for IgA assay was similar to that for IgG assay, except that the samples were 1/10^4 diluted and standard IgA ranged from 1 μg/ml to 0.0156 μg/ml were added (100 μl/well). The secondary antibody for the assay was HRP-conjugated goat anti-mouse IgA (1:1000 diluted; Zymed Laboratory, CA).

IgM = test: Serum level of IgM (ELISA); conditions: for Dose with significant increase in serum level of IgM: oral
Protocol: as §1, §2, §3
The procedure for IgM assay was similar to that for IgG assay, except that the samples were 1/10^4 diluted and standard IgM ranged from 1 μg/ml to 0.0156 μg/ml were added (100 μl/well). The secondary antibody for the assay was HRP-conjugated goat anti-mouse IgM (1:1,000 diluted; heavy chain-specific; Zymed Laboratory, CA).

[1] = oral 10 mg/kg/day for four days
[2] = oral 20 mg/kg/day for four days

Compound	Spleen cell growth, absorbance at 570 nm (MTT assay), incubation day 3 (spleen cells; oral 5 mg/kg/day for four days)	Spleen cell growth, absorbance at 570 nm (MTT assay), incubation day 4 (spleen cells; oral 5 mg/kg/day for four days)	Spleen cell growth, absorbance at 570 nm (MTT assay), incubation day 5 (spleen cells; oral 5 mg/kg/day for four days)	Spleen cell growth, absorbance at 570 nm (MTT assay), incubation day 3 (spleen cells; [1])	Spleen cell growth, absorbance at 570 nm (MTT assay), incubation day 4 (spleen cells; [1])	Spleen cell growth, absorbance at 570 nm (MTT assay), incubation day 5 (spleen cells; [1])	Spleen cell growth, absorbance at 570 nm (MTT assay), incubation day 3 (spleen cells; [2])	Spleen cell growth, absorbance at 570 nm (MTT assay), incubation day 4 (spleen cells; [2])	Spleen cell growth, absorbance at 570 nm (MTT assay), incubation day 5 (spleen cells; [2])	IgA secretion by spleen cell, incubation day 3 (IgA; oral 5 mg/kg/day for four days)	IgA secretion by spleen cell, incubation day 4 (IgA; oral 5 mg/kg/day for four days)	IgA secretion by spleen cell, incubation day 5 (IgA; oral 5 mg/kg/day for four days)	IgA secretion by spleen cell, incubation day 3 (IgA; [1])	IgA secretion by spleen cell, incubation day 4 (IgA; [1])	IgA secretion by spleen cell, incubation day 5 (IgA; [1])	IgA secretion by spleen cell, incubation day 3 (IgA; [2])	IgA secretion by spleen cell, incubation day 4 (IgA; [2])	IgA secretion by spleen cell, incubation day 5 (IgA; [2])	Dose with significant increase in serum level of IgM (IgM)	Serum immunoglobulin concentration IgM (IgM; oral 5 mg/kg/day for four days)	also measured
C=C(CC[C@@H](C(=O)O)[C@H]1[C@H](O)C[C@@]2(C)C3=CC[C@H]4C(C)(C)C(=O)CC[C@]4(C)C3=CC[C@]12C)C(C)C [K3]	1.154 ± 0.172	0.841 ± 0.160	0.864 ± 0.194	1.020 ± 0.090	0.900 ± 0.193	0.957 ± 0.200	1.103 ± 0.081	1.068 ± 0.132	0.943 ± 0.159	32.83 ± 7.00	27.37 ± 5.83	21.96 ± 4.17	26.57 ± 3.68	28.97 ± 5.95	18.87 ± 2.66	43.08 ± 4.05	43.45 ± 5.92	30.50 ± 3.60	5 mg/kg/day	1.63 ± 0.11 mg/mL	Effect on IgA secretion by spleen cells (in words) (IgA; oral): significantly suppressed; Serum immunoglobulin concentration IgM (IgM; [1]): 1.53 ± 0.14 mg/mL; Serum immunoglobulin concentration IgM (IgM; [2]): 1.53 ± 0.13 mg/mL
C=C(CCC(C(=O)O)C1C(O)CC2(C)C3=CCC4C(C)(CCC(O)C4(C)C)C3=CCC12C)C(C)C (stereo not shown) [K4]	0.949 ± 0.101	0.981 ± 0.087	0.862 ± 0.085	1.198 ± 0.101	1.273 ± 0.147	1.177 ± 0.078	1.233 ± 0.040	1.263 ± 0.041	1.061 ± 0.124	55.56 ± 4.71	79.51 ± 3.74	106.69 ± 7.29	66.43 ± 5.26	95.39 ± 10.08	121.97 ± 12.69	119.59 ± 15.08	101.53 ± 25.08	133.16 ± 20.09	5 mg/kg/day	2.65 ± 0.21 mg/mL	Dose with increase in IgA secretion by spleen cells (IgA; oral, PCM-K1 at day 3 and day 5): ≥ 5 mg/kg/day; Serum immunoglobulin concentration IgM (IgM; [1]): 2.86 ± 0.16 mg/mL; Serum immunoglobulin concentration IgM (IgM; [2]): 2.36 ± 0.16 mg/mL
